Assay results: patent US20120202818A1, “UREIDOPHENYL SUBSTITUTED TRIAZINE DERIVATIVES AND THEIR THERAPEUTICAL APPLICATIONS” (CALIFORNIA CAPITAL EQUITY, LLC, priority 2009, published 2012)

Columns and labels:
Type in all cases: biochemical
[1] = biological target: T1, c-Src kinase (Homo sapiens, UniProt P12931); assay: c-Src kinase assay (KinaseProfiler / Kinase HotSpot); conditions: compound at 1 μM; read-out: % Inhibition @1 μM cSrc
T1 construct: purchased Millipore (KinaseProfiler service) and/or Reaction Biology Corp. (Kinase HotSpot service)
T1 sequence (P12931 whole entry): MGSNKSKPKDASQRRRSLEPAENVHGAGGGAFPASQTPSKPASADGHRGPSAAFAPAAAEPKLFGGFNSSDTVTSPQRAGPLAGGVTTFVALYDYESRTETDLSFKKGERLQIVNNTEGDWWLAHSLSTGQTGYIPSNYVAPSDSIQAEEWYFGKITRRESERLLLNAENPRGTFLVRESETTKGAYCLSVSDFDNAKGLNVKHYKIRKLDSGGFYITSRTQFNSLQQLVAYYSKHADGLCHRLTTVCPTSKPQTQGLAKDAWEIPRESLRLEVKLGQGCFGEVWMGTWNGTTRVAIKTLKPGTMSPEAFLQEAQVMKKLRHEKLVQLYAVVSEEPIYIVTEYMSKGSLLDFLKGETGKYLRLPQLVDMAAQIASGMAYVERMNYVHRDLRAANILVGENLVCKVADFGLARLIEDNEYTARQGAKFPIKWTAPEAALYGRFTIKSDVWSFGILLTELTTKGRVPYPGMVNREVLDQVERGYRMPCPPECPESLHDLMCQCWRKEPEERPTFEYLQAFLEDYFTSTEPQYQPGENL
Description: (§1) This example illustrated c-Src kinase, Aurora-A kinase, Flt3 kinase, Ret kinase and TrkA Kinase Assays of selected Compounds from this invention (referred to Daniele Fancelli et al, J. Med. Chem., 2006, 49 (24), pp 7247-7251). The KinaseProfiler™ Service Assay Protocols (Millipore) were used to test the kinase inhibiting activity of novel compounds from this invention. To do this, the buffer composition was as: 20 mM MOPS, 1 mM EDTA, 0.01% Brij-35, 5% Glycerol, 0.1% β-mercaptoethanol, 1 mg/mL BSA. Test compounds were initially dissolved in DMSO at the desired concentration, then serially diluted to the kinase assay buffer. In a final reaction volume of 25 μL, Aurora-A(h) (5-10 mU) is incubated with 8 mM MOPS pH 7.0, 0.2 mM EDTA, 200 μM LRRASLG (Kemptide), 10 mM MgAcetate and [γ^33P-ATP]. The reaction was initiated by the addition of the MgATP mix. After incubation for 40 minute at room temperature, the reaction was stopped by addition of 5 μL of a 3% phosphoric acid solution. 10 μL of the reaction was then spotted onto a P30 filtermat and washed three times for 5 minutes in 50 mM phosphoric acid and once in methanol prior to drying and scintillation counting. Wells containing substrate but no kinase and wells containing a phosphopeptide control were used to set 0% and 100% phosphorylation value, respectively.
(§2) Also Kinase Hotspot ^SM kinase assay was used to test the compounds for IC50 or % inhibitions (Reaction Biology Corp.). Inhibitor IC50 values were determined by titration of compound at the optimal kinase concentration (Kinase EC50).

[2] = biological target: T2, Flt3 kinase (Homo sapiens, UniProt P36888); assay: Flt3 kinase assay (KinaseProfiler / Kinase HotSpot); conditions: compound at 1 μM
T2 construct: purchased Millipore (KinaseProfiler service) and/or Reaction Biology Corp. (Kinase HotSpot service)
T2 sequence (P36888 27-993): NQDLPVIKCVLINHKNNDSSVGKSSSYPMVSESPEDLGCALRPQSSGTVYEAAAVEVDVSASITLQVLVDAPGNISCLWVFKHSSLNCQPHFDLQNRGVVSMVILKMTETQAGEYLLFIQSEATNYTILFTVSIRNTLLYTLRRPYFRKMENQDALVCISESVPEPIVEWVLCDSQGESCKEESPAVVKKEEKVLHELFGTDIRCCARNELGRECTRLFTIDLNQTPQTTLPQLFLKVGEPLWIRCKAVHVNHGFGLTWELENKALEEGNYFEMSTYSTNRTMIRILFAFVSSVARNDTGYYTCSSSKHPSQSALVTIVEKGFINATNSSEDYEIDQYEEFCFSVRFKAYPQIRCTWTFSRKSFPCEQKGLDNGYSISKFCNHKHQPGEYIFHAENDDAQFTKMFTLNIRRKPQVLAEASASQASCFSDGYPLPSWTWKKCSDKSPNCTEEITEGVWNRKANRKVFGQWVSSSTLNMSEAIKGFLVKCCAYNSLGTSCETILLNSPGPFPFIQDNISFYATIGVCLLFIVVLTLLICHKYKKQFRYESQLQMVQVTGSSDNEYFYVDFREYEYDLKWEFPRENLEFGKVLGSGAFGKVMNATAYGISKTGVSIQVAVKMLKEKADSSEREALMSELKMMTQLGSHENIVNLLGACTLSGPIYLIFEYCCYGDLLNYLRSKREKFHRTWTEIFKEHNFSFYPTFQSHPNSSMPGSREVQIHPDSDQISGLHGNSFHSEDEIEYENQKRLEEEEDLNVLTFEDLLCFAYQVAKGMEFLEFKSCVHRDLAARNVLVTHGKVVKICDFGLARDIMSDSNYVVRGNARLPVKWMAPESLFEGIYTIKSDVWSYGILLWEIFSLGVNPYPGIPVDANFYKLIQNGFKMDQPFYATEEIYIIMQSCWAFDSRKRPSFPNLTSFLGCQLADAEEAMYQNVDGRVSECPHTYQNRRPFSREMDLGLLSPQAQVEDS
Description: as §1, §2

[3] = biological target: T3, Ret kinase (Homo sapiens, UniProt P07949); assay: Ret kinase assay (KinaseProfiler / Kinase HotSpot); conditions: compound at 1 μM
T3 construct: purchased Millipore (KinaseProfiler service) and/or Reaction Biology Corp. (Kinase HotSpot service)
T3 sequence (P07949 29-1114): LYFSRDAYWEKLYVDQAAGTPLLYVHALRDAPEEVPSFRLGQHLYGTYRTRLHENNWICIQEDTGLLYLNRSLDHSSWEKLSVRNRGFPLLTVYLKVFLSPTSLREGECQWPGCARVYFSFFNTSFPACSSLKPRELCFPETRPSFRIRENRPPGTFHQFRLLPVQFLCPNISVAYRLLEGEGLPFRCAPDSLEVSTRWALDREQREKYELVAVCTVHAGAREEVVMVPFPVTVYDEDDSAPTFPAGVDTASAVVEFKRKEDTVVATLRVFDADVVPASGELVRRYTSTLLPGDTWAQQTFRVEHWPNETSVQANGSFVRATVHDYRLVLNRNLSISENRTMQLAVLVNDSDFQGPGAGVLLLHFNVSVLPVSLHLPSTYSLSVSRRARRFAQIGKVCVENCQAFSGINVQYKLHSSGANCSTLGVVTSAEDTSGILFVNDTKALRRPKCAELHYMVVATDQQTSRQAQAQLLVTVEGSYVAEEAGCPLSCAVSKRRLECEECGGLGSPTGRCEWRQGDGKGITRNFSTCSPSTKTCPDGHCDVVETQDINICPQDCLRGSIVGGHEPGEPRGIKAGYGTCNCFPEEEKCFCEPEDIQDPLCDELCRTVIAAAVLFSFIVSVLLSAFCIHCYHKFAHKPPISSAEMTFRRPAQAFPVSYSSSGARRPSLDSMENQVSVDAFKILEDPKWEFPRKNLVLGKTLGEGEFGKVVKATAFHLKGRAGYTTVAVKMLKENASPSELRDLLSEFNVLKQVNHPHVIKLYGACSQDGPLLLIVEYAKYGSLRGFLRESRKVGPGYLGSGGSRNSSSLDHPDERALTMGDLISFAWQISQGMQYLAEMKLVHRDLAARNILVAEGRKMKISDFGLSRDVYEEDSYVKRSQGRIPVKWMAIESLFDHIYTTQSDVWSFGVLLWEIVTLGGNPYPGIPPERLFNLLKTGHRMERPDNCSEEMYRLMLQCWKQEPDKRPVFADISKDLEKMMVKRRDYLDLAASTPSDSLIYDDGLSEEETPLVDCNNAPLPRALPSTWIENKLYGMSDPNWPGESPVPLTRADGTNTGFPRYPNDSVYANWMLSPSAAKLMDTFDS
Description: as §1, §2

[4] = biological target: T4, TrkA Kinase (Homo sapiens, UniProt P04629); assay: TrkA kinase assay (KinaseProfiler / Kinase HotSpot); conditions: compound at 1 μM
T4 construct: purchased Millipore (KinaseProfiler service) and/or Reaction Biology Corp. (Kinase HotSpot service)
T4 sequence (P04629 33-796): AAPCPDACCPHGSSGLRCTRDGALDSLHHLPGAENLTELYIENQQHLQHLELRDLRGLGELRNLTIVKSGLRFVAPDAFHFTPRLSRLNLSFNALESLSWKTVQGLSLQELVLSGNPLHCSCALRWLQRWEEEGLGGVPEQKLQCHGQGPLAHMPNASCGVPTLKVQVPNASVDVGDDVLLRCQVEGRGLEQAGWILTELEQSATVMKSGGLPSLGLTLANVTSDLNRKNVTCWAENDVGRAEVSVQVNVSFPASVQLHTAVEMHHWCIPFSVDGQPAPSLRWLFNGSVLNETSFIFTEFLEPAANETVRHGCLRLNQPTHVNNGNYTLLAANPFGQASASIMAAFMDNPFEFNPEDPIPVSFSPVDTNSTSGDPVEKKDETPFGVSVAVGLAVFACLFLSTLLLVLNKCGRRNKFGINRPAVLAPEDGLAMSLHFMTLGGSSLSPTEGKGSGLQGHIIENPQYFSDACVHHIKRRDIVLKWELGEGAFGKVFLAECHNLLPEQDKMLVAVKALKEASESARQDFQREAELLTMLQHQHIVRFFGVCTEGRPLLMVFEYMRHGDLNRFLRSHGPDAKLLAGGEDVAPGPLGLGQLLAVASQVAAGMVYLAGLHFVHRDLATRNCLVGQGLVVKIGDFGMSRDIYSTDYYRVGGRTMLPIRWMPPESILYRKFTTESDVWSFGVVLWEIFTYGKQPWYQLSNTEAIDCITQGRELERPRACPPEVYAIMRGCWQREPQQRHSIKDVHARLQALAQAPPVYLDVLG
Description: as §1, §2

[5] = biological target: T5, Aurora-A kinase (Homo sapiens, UniProt O14965); assay: Aurora-A kinase assay (KinaseProfiler / Kinase HotSpot); conditions: compound at 1 μM; read-out: % Inhibition @1 μM Auroro-A
T5 construct: purchased Millipore (KinaseProfiler service) and/or Reaction Biology Corp. (Kinase HotSpot service)
T5 sequence (O14965 1-403): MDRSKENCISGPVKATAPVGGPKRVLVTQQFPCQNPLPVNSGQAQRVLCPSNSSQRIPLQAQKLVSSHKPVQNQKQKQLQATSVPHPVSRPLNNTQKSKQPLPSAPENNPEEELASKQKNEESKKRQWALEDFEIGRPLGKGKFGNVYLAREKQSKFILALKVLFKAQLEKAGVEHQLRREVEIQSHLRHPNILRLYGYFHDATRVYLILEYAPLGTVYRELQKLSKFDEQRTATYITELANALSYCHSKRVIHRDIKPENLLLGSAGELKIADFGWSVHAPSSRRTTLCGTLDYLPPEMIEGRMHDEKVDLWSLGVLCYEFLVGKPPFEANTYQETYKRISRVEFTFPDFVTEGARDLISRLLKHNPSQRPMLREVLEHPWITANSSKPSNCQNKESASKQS
Description: as §1, §2

Structure (SMILES)	inhibition at 1 µM [1] [%]	inhibition at 1 µM [2] [%]	inhibition at 1 µM [3] [%]	inhibition at 1 µM [4] [%]	inhibition at 1 µM [5] [%]
Cc1cnc(Nc2nc(Sc3ccc(N)cc3)nc(N3CCN(C)CC3)n2)s1 [Example 2]	50 to 90	> 90	50 to 90	50 to 90	50 to 90
CCc1nc(Nc2ccc(NC(=O)Nc3ccc(C(F)(F)F)cc3)cc2)nc(Nc2cc(C)[nH]n2)n1 [Example 12]	< 50	< 50	50 to 90	< 50	> 90
CCc1nc(Nc2ccc(NC(=O)NC(C)C)cc2)nc(Nc2cc(C)n(C(=O)NC(C)C)n2)n1 [Example 14]	< 50	< 50	< 50	< 50	50 to 90
CCc1nc(Nc2ccc(NC(=O)NC(C)C)cc2)nc(Nc2cc(C)[nH]n2)n1 [Example 21]	< 50	< 50	< 50	< 50	< 50
CCc1nc(Nc2ccc(NC(=O)Nc3ccccc3C)cc2)nc(Nc2cc(C)[nH]n2)n1 [Example 23]	< 50	< 50	< 50	< 50	> 90
CCc1nc(Nc2ccc(NC(=O)NCc3ccccc3)cc2)nc(Nc2cc(C)[nH]n2)n1 [Example 25]	< 50	< 50	> 90	< 50	50 to 90

Second part, the molecule after the results:

inhibition at 1 µM [1] [%]	inhibition at 1 µM [2] [%]	inhibition at 1 µM [3] [%]	inhibition at 1 µM [4] [%]	inhibition at 1 µM [5] [%]	Structure (SMILES)
< 50	50 to 90	< 50	50 to 90	50 to 90	Cc1cnc(Nc2nc(Sc3cccc(N)c3)nc(N3CCN(C)CC3)n2)s1 [Example 3]
< 50	50 to 90	50 to 90	50 to 90	> 90	Cc1cnc(Nc2nc(Sc3ccc(NC(=O)Nc4ccccc4)cc3)nc(N3CCN(C)CC3)n2)s1 [Example 4]
< 50	< 50	< 50	< 50	< 50	CCNC(=O)Nc1ccc(Nc2nc(CC)nc(Nc3cc(C)n(C(=O)NCC)n3)n2)cc1 [Example 13]
< 50	< 50	< 50	< 50	< 50	CCc1nc(Nc2ccc(NC(=O)Nc3ccccc3)cc2)nc(Nc2ncc(C)s2)n1 [Example 15]
< 50	< 50	< 50	< 50	< 50	CCNC(=O)Nc1ccc(Nc2nc(CC)nc(Nc3cc(C)[nH]n3)n2)cc1 [Example 22]
< 50	50 to 90	50 to 90	< 50	50 to 90	CCc1nc(Nc2ccc(NC(=O)Nc3ccc(OC)cc3)cc2)nc(Nc2cc(C)[nH]n2)n1 [Example 24]
